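Method: 48-hour compound exposure of cells in 96-well plates, five concentrations, linear interpolation of endpoints. GI50 is the concentration that inhibits growth by half. TGI denotes the concentration required for complete inhibition of growth.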
What was measured:
Assay in all cases: NCI-60 cell line screen, 48 h
SF-268 CNS = tested on: SF-268 CNS
UO-31 renal = tested on: UO-31 renal
U251 CNS = tested on: U251 CNS
OVCAR-3 ovarian = tested on: OVCAR-3 ovarian
SNB-19 CNS = tested on: SNB-19 CNS
OVCAR-5 ovarian = tested on: OVCAR-5 ovarian
OVCAR-4 ovarian = tested on: OVCAR-4 ovarian
NCI-H522 lung = tested on: NCI-H522 lung
COLO 205 colon = tested on: COLO 205 colon
SK-MEL-5 melanoma = tested on: SK-MEL-5 melanoma

Row | SMILES | GI50 (SF-268 CNS) [µM] | TGI (SF-268 CNS) [µM] | GI50 (UO-31 renal) [µM] | TGI (UO-31 renal) [µM] | GI50 (U251 CNS) [µM] | TGI (U251 CNS) [µM] | GI50 (OVCAR-3 ovarian) [µM] | TGI (OVCAR-3 ovarian) [µM] | GI50 (SNB-19 CNS) [µM] | TGI (SNB-19 CNS) [µM] | GI50 (OVCAR-5 ovarian) [µM] | TGI (OVCAR-5 ovarian) [µM] | GI50 (OVCAR-4 ovarian) [µM] | TGI (OVCAR-4 ovarian) [µM] | GI50 (NCI-H522 lung) [µM] | TGI (NCI-H522 lung) [µM] | GI50 (COLO 205 colon) [µM] | TGI (COLO 205 colon) [µM] | GI50 (SK-MEL-5 melanoma) [µM] | TGI (SK-MEL-5 melanoma) [µM]
1 | C[C@@H](Oc1cc(-n2cnc3ccc(OC4CCN(C)CC4)cc32)sc1C(N)=O)c1ccccc1Cl | 0.022 | 4.69 | 1.74 | 5.95 | 0.0155 | 4.13 | 0.00858 | 3.2 | 0.07 | 13.2 | 0.024 | 5.76 | 1.62 | 9.09 | 0.0117 | 5.03 | 0.00926 | 0.106 | 0.0306 | 0.777
2 | CC(C)C[C@H](NC(=O)CNC(=O)c1cc(Cl)ccc1Cl)B(O)O | 0.0343 | 0.22 | < 0.0131 | 0.0406 | 0.0504 | 2.81 | < 0.0141 | 0.0292 | 0.273 | > 87.8 | 0.0493 | 0.551 | 0.061 | 5.45 | 0.0164 | 0.0414 | 0.0432 | > 38.5 | < 0.0136 | 0.0305
3 | C/C=C(\C)c1cc(=O)c2c(C)cc3c(c2o1)C(=O)c1c(O)c(C2CC(C)(N(C)C)C(OC(C)=O)C(C)O2)cc(C2CC(N(C)C)C(O)C(C)O2)c1C3=O (stereo not given) |  | 9.56 |  | 7.87 |  | > 50 |  | > 21 |  | 10.9 |  | 15.5 |  | 10.2 |  | 1.16 |  | 3.05 |  | 1.59
4 | O=C(C(=O)c1cc2ccccc2[nH]1)c1cc2ccccc2[nH]1 |  | > 347 |  | > 347 |  | > 347 |  | 95.7 |  | > 347 |  | > 347 |  | 299 |  | 114 |  | > 347 |  | > 347
5 | C=C(c1ccc(OC)c(/C=C/C(=O)c2ccc3c(c2)OCO3)c1)c1cc(OC)c(OC)c(OC)c1 | 3.18 | > 100 | 3.1 | > 100 | 2.54 | 9.88 | 2.98 | 8.21 | 2.79 | > 100 | 4.4 | > 100 | 3.93 | > 100 | 1.55 | 4.78 | 4.15 | > 100 | 1.97 | 6.71
6 | COc1cc(/C=C/c2cc(/C=C/c3ccc(O)c(OC)c3)n(C(=O)c3ccc(Cl)cc3)n2)ccc1O | 2.65 | 13.6 | 1.39 | 10.1 | 2.94 | 11.6 | 2.67 | 7.72 | 2.8 | 12.1 | 3.66 | 18.2 | 2.02 | 34.9 | 0.595 | 4.32 | 3.78 | 13.4 | 2.27 | 11.6
7 | COc1ccc(Cc2c3cc(O)c(=O)cc-3ccn2C)cc1 |  | 98.2 |  | > 73 |  | > 100 |  | > 100 |  | > 100 |  | > 100 |  | > 100 |  | > 100 |  | > 100 |  | > 76.1
8 | C=CCC1(CN(C)C)CC/C(=C\c2ccc(OC)cc2)C1=O (stereo not given) |  | > 100 |  | > 100 |  | > 100 |  | > 100 |  | > 100 |  | > 100 |  | > 100 |  | 81.9 |  | > 100 |  | > 100
